For five compounds, IC50 results are on record in patent publication US7998952B2, “Thiolactams and uses thereof” (Millennium Pharmaceuticals, Inc., priority 2008, dated 2011).

What is called IC50 is the concentration that gives 50% inhibition.

T1 sequence (P53350 2-369 T210D): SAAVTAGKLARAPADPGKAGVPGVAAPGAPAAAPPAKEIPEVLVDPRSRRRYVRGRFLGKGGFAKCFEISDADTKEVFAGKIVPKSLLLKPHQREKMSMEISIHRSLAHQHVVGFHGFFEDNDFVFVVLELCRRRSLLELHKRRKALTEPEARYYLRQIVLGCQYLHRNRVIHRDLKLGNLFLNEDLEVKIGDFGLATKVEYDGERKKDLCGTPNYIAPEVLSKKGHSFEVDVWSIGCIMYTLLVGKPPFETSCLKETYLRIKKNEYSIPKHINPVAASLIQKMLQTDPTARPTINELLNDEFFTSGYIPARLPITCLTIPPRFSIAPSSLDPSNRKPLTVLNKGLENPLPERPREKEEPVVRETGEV

The test has as its target T1, recombinant human PLK1[2-369]T210D (Homo sapiens, UniProt P53350, T210D).
T1 construct: recombinant human PLK1[2-369]T210D; Smt (SUMO) fusion partner (N, cleaved yes); host or cells: E. coli
The test is described as follows: PLK1 DELFIA Kinase Assay. The test is classed as biochemical. To be noted: 50 μM ATP, 2 μM peptide substrate, 0.3 nM enzyme, 90 minutes at room temperature. The procedure, abridged: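 E. coli-expressed human PLK1, cleaved from an Smt fusion after Ni2+ purification, is reacted with or without inhibitor for 90 minutes at room temperature and stopped with EDTA. Product is captured on Neutravidin plates and quantified by europium DELFIA time-resolved fluorescence.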
As to `Cc1nc(C(=O)NCCN(C)C)ccc1Nc1ncc2c(n1)-c1ccc(C(F)(F)F)cc1NC(=S)C2` [Compound I-118, N-[2-(dimethylamino)ethyl]-6-methyl-5-{[6-thioxo-9-(trifluoromethyl)-6,7-dihydro-5H-pyrimido[5,4-d][1]benzazepin-2-yl]amino}pyridine-2-carboxamide], the half-maximal inhibitory concentration (IC50) lay within 5 to 25 nM.
For `Cc1ncc(CCCN(C)C)cc1Nc1ncc2c(n1)-c1cc(CCCN(C)C)c(Cl)cc1NC(=S)C2` [Compound I-120, 9-chloro-10-[3-(dimethylamino)propyl]-2-({5-[3-(dimethylamino)propyl]-2-methylpyridin-3-yl}amino)-5,7-dihydro-6H-pyrimido[5,4-d][1]benzazepine-6-thione], the IC50 was more than 25 nM.
As for `Cc1nc(NC(=O)CN(C)C)ccc1Nc1ncc2c(n1)-c1ccc(C(F)(F)F)cc1NC(=S)C2` [Compound I-121, 2-(dimethylamino)-N-(6-methyl-5-{[6-thioxo-9-(trifluoromethyl)-6,7-dihydro-5H-pyrimido[5,4-d][1]benzazepin-2-yl]amino}pyridin-2-yl)acetamide], the figure is 5 to 25 nM; as for `Cc1nc2c(cc1Nc1ncc3c(n1)-c1ccc(C(F)(F)F)cc1NC(=S)C3)CCC(N(C)C)C2` (centres unmarked) [Compound I-122, 2-{[7-(dimethylamino)-2-methyl-5,6,7,8-tetrahydroquinolin-3-yl]amino}-9-(trifluoromethyl)-5,7-dihydro-6H-pyrimido[5,4-d][1]benzazepine-6-thione], 5 to 25 nM; as for `Cc1nc(C(=O)NC2CCN(C)CC2)ccc1Nc1ncc2c(n1)-c1ccc(C(F)(F)F)cc1NC(=S)C2` [Compound I-123, 6-methyl-N-(1-methylpiperidin-4-yl)-5-{[6-thioxo-9-(trifluoromethyl)-6,7-dihydro-5H-pyrimido[5,4-d][1]benzazepin-2-yl]amino}pyridine-2-carboxamide], 5 to 25 nM.
